Data as given in ChEMBL document CHEMBL1158933, “A new polyhalogenated monoterpene from the red alga Plocamium cartilagineum” (J Nat Prod, 1990).
Activity calls are given as the source filed them. The calls are words filed in the database; no cut-off is given here.

Columns and labels:
Penicillium oxalicum = assay: Antifungal activity against Penicillium oxalicum CBS 219.30 by bioautographic test; assay type: functional
Bacillus subtilis = assay: Antibacterial activity against Bacillus subtilis ATCC 6633 up to 24 ug by bioautographic test; assay type: functional, organism-based
Micrococcus luteus = assay: Antibacterial activity against Micrococcus luteus ATCC 9341 up to 24 ug by bioautographic test; assay type: functional, organism-based
Escherichia coli = assay: Antibacterial activity against Escherichia coli ATCC 25922 up to 24 ug by bioautographic test; assay type: functional, organism-based
Biomphalaria glabrata [1] = assay: Molluscicidal activity in Biomphalaria glabrata assessed as mortality at 5 ppm; assay type: functional
[2] = Toxicity against Artemia salina assessed as mortality at 120 ug/ml; assay type: organism-based; conditions: in vivo, read-out: Activity
[3] = Toxicity against Artemia salina assessed as mortality at 12 ug/ml; assay type: organism-based; conditions: in vivo, read-out: Activity
Biomphalaria glabrata [4] = assay: Molluscicidal activity in Biomphalaria glabrata assessed as mortality at 2.5 ppm; assay type: functional
[5] = Toxicity against Artemia salina assessed as mortality at 100 ug/ml; assay type: organism-based; conditions: in vivo, read-out: Activity
[6] = Toxicity against Artemia salina assessed as mortality at 10 ug/ml; assay type: organism-based; conditions: in vivo, read-out: Activity
Biomphalaria glabrata [7] = assay: Molluscicidal activity in Biomphalaria glabrata assessed as mortality at 6 ppm; assay type: functional, organism-based
Artemia salina = assay: Toxicity against Artemia salina assessed as mortality; assay type: organism-based; conditions: in vivo

SMILES | MIC (Penicillium oxalicum) | Activity (Bacillus subtilis) | Activity (Micrococcus luteus) | Activity (Escherichia coli) | Activity (Biomphalaria glabrata [1]) | mortality at 120 ug/ml [2] | mortality at 12 ug/ml [3] | Activity (Biomphalaria glabrata [4]) | mortality at 100 ug/ml [5] | mortality at 10 ug/ml [6] | Activity (Biomphalaria glabrata [7]) | Activity (Artemia salina)
C[C@]1(Cl)C[C@](C)(/C=C/Cl)[C@H](Br)C[C@@H]1Cl | 0.6 µg | inactive | inactive | inactive | 100% | 100% | 26% |  |  |  |  | 
C[C@]1(Cl)C[C@](C)(Br)[C@@H](/C=C/Cl)C[C@H]1Br | 10 µg | inactive | inactive | inactive |  |  |  | 100% | 100% | 20% |  | 
C[C@@](Cl)(/C=C/Br)[C@@H](Cl)/C=C/C(Cl)(CCl)CBr (stereo partly specified) | 0.1 µg | inactive | inactive | inactive |  |  |  |  |  |  | inactive | Not Active
C=C(/C=C/[C@@H](Cl)[C@](C)(Cl)/C=C/Br)CCl (relative stereo) | 0.1 µg | inactive | inactive | inactive |  |  |  |  |  |  | inactive | Not Active
